The results in this text go back to ChEMBL document CHEMBL1131920, “Periodinates: a new class of protein tyrosine phosphatase inhibitors” (Bioorg Med Chem Lett, 1999).

The species named for assay [1] is Rattus norvegicus. The assay can be described thus: Inhibition of protein tyrosine phosphatase (PTP) activity in rat liver endosome insulin receptor (IR) dephosphorylation assay at 0.1 mM.
The species named for assay [2] is Rattus norvegicus. The assay can be described thus: Inhibition of protein tyrosine phosphatase (PTP) activity in rat liver endosome insulin receptor (IR) dephosphorylation assay at 1 mM.
Assay [3] concerns the target T1, Tyrosine-protein phosphatase non-receptor type 1 (Homo sapiens, UniProt P18031).
T1 sequence (P18031 whole entry): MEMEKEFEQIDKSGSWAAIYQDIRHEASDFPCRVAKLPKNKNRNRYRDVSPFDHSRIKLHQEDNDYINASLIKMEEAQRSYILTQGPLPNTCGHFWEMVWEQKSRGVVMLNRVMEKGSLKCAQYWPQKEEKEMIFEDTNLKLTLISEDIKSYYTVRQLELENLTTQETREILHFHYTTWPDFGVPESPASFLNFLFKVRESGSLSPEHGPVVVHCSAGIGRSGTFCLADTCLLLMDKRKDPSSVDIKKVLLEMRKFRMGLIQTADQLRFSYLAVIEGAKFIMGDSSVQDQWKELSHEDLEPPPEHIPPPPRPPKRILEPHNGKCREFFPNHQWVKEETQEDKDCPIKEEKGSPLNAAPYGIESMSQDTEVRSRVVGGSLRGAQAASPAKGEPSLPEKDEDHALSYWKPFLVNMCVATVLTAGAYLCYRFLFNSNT
The assay can be described thus: Inhibition of protein tyrosine phosphatase 1B (PTP1B) activity in 3,6-fluorescein diphosphate (FDP) assay.

Assay [4] deals with T1, Tyrosine-protein phosphatase non-receptor type 1. Briefly: Inhibition of protein tyrosine phosphatase 1B (PTP1B) activity in 3,6-fluorescein diphosphate (FDP) assay; NI= no inhibition.

Regarding `O=I(=O)c1ccccc1`, the inhibition in assay [1] was 0%; in assay [2] it was 88%. Besides, 2650 µM corresponded to half-maximal inhibition in assay [3] (IC50).

`CC(C)(C)OOI1OC(=O)c2ccccc21`: the inhibition in assay [1] worked out at 48%; in assay [2] it was 78%. In addition, the IC50 in assay [3] amounted to 230 µM.

Regarding `OO`, the inhibition came to 0% in assay [1] and 65% in assay [2].

In the case of `O=I(=O)c1c[nH]cn1`, the inhibition in assay [1] came out at 22%; in assay [2], 43%. The IC50 in assay [3] is 1050 µM.

`O=[N+]([O-])c1cccc(I(=O)=O)c1`: the inhibition in assay [1] is 27%; in assay [2], 86%. In assay [3], half-maximal inhibition (IC50) was put at 1140 µM.

Turning to `O=C1OI(O)c2ccccc21`, the inhibition in assay [2] stood at 10%. Further, the concentration for half-maximal inhibition (IC50) result in assay [4] is on record as “Not Active”.

`CC(=O)OI1(OC(C)=O)(OC(C)=O)OC(=O)c2ccccc21`: the results for the inhibition in assay [1] and in assay [2] were 50% and 69%, respectively. In assay [3], this molecule showed an IC50 of 130 µM.

With `O=C(O)c1cccc(I(=O)=O)c1`, the inhibition was determined as 32% in assay [1] and 67% in assay [2]. Also, the IC50 in assay [3] amounted to 890 µM.

With `O=C1OI(=O)(O)c2ccccc21` (stereo not given), the inhibition came out at 36% in assay [1] and 98% in assay [2]. In assay [3], the IC50 came out at 1160 µM.

Consider `O=P1(O)Oc2ccccc2I(=O)(O)O1` (stereo not given), for which the inhibition in assay [1] came to 17%. In assay [3], this molecule registered an IC50 of 350 µM.

Consider `Cc1ccc(I(=O)=O)cc1`, for which the inhibition in assay [1] came out at 6%; in assay [2], 47%. For the same molecule, the IC50 in assay [3] came to 1510 µM.

Regarding `O=I(=O)c1ccc(I(=O)=O)cc1`, in assay [2], the inhibition worked out at 30%. Further, 1410 µM corresponded to half-maximal inhibition in assay [3] (IC50).

With `O=[N+]([O-])c1ccc(I(=O)=O)cc1`, the figures for the inhibition in assay [1] and in assay [2] were 30% and 90%, respectively. In assay [3], this molecule registered an IC50 of 130 µM.
